Assay results from patent publication US20220251044A1, “CRYSTAL FORM OF HYPOXIA-INDUCIBLE FACTOR-PROLYL HYDROXYLASE INHIBITOR” (CRYSTAL PHARMACEUTICAL (SUZHOU) CO., LTD., priority 2019, published 2022).
“Also recorded” adds a separate entry of the source.

Legend:
Assay type in all cases: physicochemical
[1] = Stability of Form CSI on storage (XRPD form, chemical purity)
Procedure: The parameters for purity tests of the present disclosure are as follows: [table] Approximately 5 mg of solid samples of Form CSI were stored under different conditions of 25° C./60% RH, 40° C./75% RH and 60° C./75% RH. Chemical purity and crystalline form were checked by HPLC and XRPD, respectively.

Hygroscopicity by DVS = assay: Hygroscopicity by DVS
Procedure: Dynamic Vapor Sorption (DVS) was measured via an SMS (Surface Measurement Systems Ltd.) intrinsic DVS instrument. Its control software is DVS-Intrinsic control software. Typical parameters for DVS test are as follows: Temperature: 25° C. Gas and flow rate: N2, 200 mL/min dm/dt: 0.002%/min RH range: 0% RH to 95% RH DVS was applied to test the hygroscopicity of Form CSI and WO2014014835 Form A with about 10 mg of samples. The weight gains at each relative humidity were recorded in a cycle of 0-95%-0 RH. XRPD test was applied before and after DVS. Description and definition of hygroscopicity (general notice 9103 drug hygroscopicity test guidelines in 2015 edition of Chinese Pharmacopoeia, test at 25° C.±1° C., 80% RH. The definition of hygroscopicity in the 9th European Pharmacopoeia 5.11 is similar to the Chinese Pharmacopoeia.).

[2] = Intrinsic dissolution (IDR); conditions: for IDR: slope of data within 5-120 minutes
Procedure: The parameters for intrinsic dissolution tests in the present disclosure are as follows:
Approximately 100 mg of Form CSI or WO2014014835 Form A was added into the cavity of the die, and then compressed at 10 kN and held for 0.5 minute to obtain a tablet having a surface area of 0.5 cm^2. The die with the tablet still embedded was put into a dissolution apparatus to test the intrinsic dissolution. The slope (in μg/min) of the regression line was calculated according to the data within 5-120 minutes. IDR (in μg/min/cm^2) was further calculated according to the slope.

[3] = Physical stability on grinding (XRPD); conditions: ground manually for 5 min in a mortar
Procedure: Form CSI and WO2014014835 Form A was ground manually for 5 min in a mortar.

[4] = Crystalline form stability in the formulation process (XRPD); conditions: capsule formulation of Table 17, process of Table 18
Description: Form CSI of the present disclosure and WO2014014835 Form A were made into capsules using the formulation in Table 17 and the preparation process in Table 18. The XRPD patterns were collected before and after the formulation process. […] [table] [table]

[5] = Kinetic solubility in SGF, FaSSIF, FeSSIF and water
Description: The parameters for kinetic solubility tests of the present disclosure are as follows:
When solubility test is used to predict the in vivo performance of a drug, it is critical to simulate in vivo conditions as closely as possible. For oral medication, Simulated Gastric Fluid (SGF), Fasted-State Simulated Intestinal Fluid (FaSSIF), Fed-State Simulated Intestinal Fluid (FeSSIF) can be used to simulate the condition in vivo and predict the effects of feeding, thus solubility in such mediums is closer to that in vivo.
20 mg of Form CSI and 20 mg of WO2014014835 Form A were suspended into 4.0 mL of SGF, 4.0 mL of FaSSIF, 4.0 mL of FeSSIF and 4.0 mL of water to get saturated solutions. After equilibrated for 1 h, 4 h, 8 h and 24 h, the concentrations (μg/mL) of Compound I of the saturated solutions were measured by UPLC.

[6] = Compressibility (tablet hardness, tensile strength); conditions: 80 mg, compressed at 10 kN
Procedure: ENERPAC manual tablet press was used for compression. 80 mg of Form CSI and WO2014014835 Form A were weighed and added into the dies of a φ6 mm round tooling, compressed at 10 kN, then stored at room temperature for 24 h until complete elastic recovery. Hardness (H) was tested with an intelligent tablet hardness tester. Diameter (D) and thickness (L) were tested with a caliper. Tensile strength of the powder was calculated with the following formula: T=2H/πDL*9.8. Under a certain force, the greater the tensile strength, the better the compressibility.

[7] = Pressure stability on tableting (XRPD)
Description: Certain amount of Form CSI was compressed into tablets under different pressures with suitable tableting die. Crystalline forms before and after tableting were checked by XRPD.

[8] = 25° C./60% RH, sealed, 3 months
[9] = 40° C./75% RH, sealed, 3 months

Cc1nc(C(=O)NCC(=O)O)c(O)c2ccc(Oc3ccccc3)cc12 [Form CSI, [(4-hydroxy-1-methyl-7-phenoxy-isoquinoline-3-carbonyl)-amino]-acetic acid]
Chemical purity during storage ([1]; 25° C./60% RH): above 99.5% | Time the drug substance kept stable (crystalline state unchanged) ([1]; 25° C./60% RH): at least three months | Crystalline form (XRPD) after storage ([1]; 25° C./60% RH, open, 3 months): Form CSI | Purity after storage ([1]; 25° C./60% RH, open, 3 months): 99.68% | Crystalline form (XRPD) after storage [1, 8]: Form CSI | Purity after storage [1, 8]: 99.65% | Time the drug substance kept stable (crystalline state unchanged) ([1]; 40° C./75% RH): at least three months | Chemical purity during storage ([1]; 40° C./75% RH and 60° C./75% RH): above 99.5% | Crystalline form (XRPD) after storage ([1]; 40° C./75% RH, open, 3 months): Form CSI | Purity after storage ([1]; 40° C./75% RH, open, 3 months): 99.68% | Crystalline form (XRPD) after storage [1, 9]: Form CSI | Purity after storage [1, 9]: 99.66% | Time the drug substance kept stable (crystalline state unchanged) ([1]; 60° C./75% RH): at least one month | Crystalline form (XRPD) after storage ([1]; 60° C./75% RH, open, 1 month): Form CSI | Purity after storage ([1]; 60° C./75% RH, open, 1 month): 99.63% | Crystalline form (XRPD) after storage ([1]; 60° C./75% RH, sealed, 1 month): Form CSI | Purity after storage ([1]; 60° C./75% RH, sealed, 1 month): 99.68% | Crystalline form (XRPD) ([1]; Initial): Form CSI | Purity ([1]; Initial): 99.71% | Weight gain under 80% RH (Hygroscopicity by DVS; DVS, 25° C.): 0.12% | Hygroscopicity class (Hygroscopicity by DVS; weight gain under 80% RH): non-hygroscopic or almost non-hygroscopic; also recorded: non hygroscopic or almost non-hygroscopic | Increase of dissolution rate compared with Form A ([2]; pH 4.5 PBS): 41% | Cumulative dissolution ([2]; pH4.5 PBS, 5 min, 37° C., 0.5 cm^2 tablet): 36.8 µg | Cumulative dissolution ([2]; pH4.5 PBS, 10 min): 35.6 µg | Cumulative dissolution ([2]; pH4.5 PBS, 15 min): 39.8 µg | Cumulative dissolution ([2]; pH4.5 PBS, 20 min): 50.0 µg | Cumulative dissolution ([2]; pH4.5 PBS, 25 min): 50.4 µg | Cumulative dissolution ([2]; pH4.5 PBS, 30 min): 56.0 µg | Cumulative dissolution ([2]; pH4.5 PBS, 45 min): 70.7 µg | Cumulative dissolution ([2]; pH4.5 PBS, 60 min): 83.0 µg | Cumulative dissolution ([2]; pH4.5 PBS, 90 min): 114.0 µg | Cumulative dissolution ([2]; pH4.5 PBS, 120 min): 142.3 µg | IDR ([2]; pH4.5 PBS): 1.8928 μg/min/cm^2 | Cumulative dissolution ([2]; pH6.8 PBS, 5 min, 37° C., 0.5 cm^2 tablet): 440.4 µg | Cumulative dissolution ([2]; pH6.8 PBS, 10 min): 916.0 µg | Cumulative dissolution ([2]; pH6.8 PBS, 15 min): 1345.9 µg | Cumulative dissolution ([2]; pH6.8 PBS, 20 min): 1758.2 µg | Cumulative dissolution ([2]; pH6.8 PBS, 25 min): 2152.9 µg | Cumulative dissolution ([2]; pH6.8 PBS, 30 min): 2521.4 µg | Cumulative dissolution ([2]; pH6.8 PBS, 45 min): 3392.2 µg | Cumulative dissolution ([2]; pH6.8 PBS, 60 min): 4309.7 µg | Cumulative dissolution ([2]; pH6.8 PBS, 90 min): 5967.2 µg | Cumulative dissolution ([2]; pH6.8 PBS, 120 min): 7448.5 µg | IDR ([2]; pH6.8 PBS): 120.3256 μg/min/cm^2 | Crystalline form and crystallinity after grinding (XRPD) [3]: remain unchanged after grinding | Crystalline form before and after the formulation process (XRPD) [4]: remains stable | Kinetic solubility (concentration of Compound I in saturated solution) ([5]; FaSSIF, 1 hour): 617.0 µg/mL | Kinetic solubility (concentration of Compound I in saturated solution) ([5]; FaSSIF, 4 hours): 934.6 µg/mL | Kinetic solubility (concentration of Compound I in saturated solution) ([5]; FaSSIF, 8 hours): 1043.5 µg/mL | Kinetic solubility (concentration of Compound I in saturated solution) ([5]; FaSSIF, 24 hours): 1109.6 µg/mL | Kinetic solubility (concentration of Compound I in saturated solution) ([5]; FeSSIF, 1 hour): 180.4 µg/mL | Kinetic solubility (concentration of Compound I in saturated solution) ([5]; FeSSIF, 4 hours): 270.3 µg/mL | Kinetic solubility (concentration of Compound I in saturated solution) ([5]; FeSSIF, 8 hours): 295.3 µg/mL | Kinetic solubility (concentration of Compound I in saturated solution) ([5]; FeSSIF, 24 hours): 314.4 µg/mL | Kinetic solubility (concentration of Compound I in saturated solution) ([5]; SGF, 1 hour): 22.7 µg/mL | Kinetic solubility (concentration of Compound I in saturated solution) ([5]; SGF, 4 hours): 24.0 µg/mL | Kinetic solubility (concentration of Compound I in saturated solution) ([5]; SGF, 8 hours): 24.2 µg/mL | Kinetic solubility (concentration of Compound I in saturated solution) ([5]; SGF, 24 hours): 24.0 µg/mL | Kinetic solubility (concentration of Compound I in saturated solution) ([5]; water, 1 hour): 18.2 µg/mL | Kinetic solubility (concentration of Compound I in saturated solution) ([5]; water, 4 hours): 21.9 µg/mL | Kinetic solubility (concentration of Compound I in saturated solution) ([5]; water, 8 hours): 34.1 µg/mL | Kinetic solubility (concentration of Compound I in saturated solution) ([5]; water, 24 hours): 25.7 µg/mL | Tensile strength ([6]; T=2H/πDL*9.8): 1.22 MPa | Hardness ([6]; φ6 mm round tooling, after 24 h): 2.47 kgf | Crystalline form after tableting (XRPD) ([7]; pressure 10 KN): Form CSI | Crystalline form after tableting (XRPD) ([7]; pressure 15 KN): Form CSI
